# Laboratory results: patent publication US6274620A, “Thiophene integrin inhibitors” (BioChem Pharma Inc., priority 2000, dated 2001)
# pIC50: −log10 of the molar value. Structures can show the parent of a compound that is named as a salt.
# Experiments:
# αvβ3 [1] = target: T1, αvβ3 (Homo sapiens, UniProt P05106+P06756); assay: Solid-phase assay: biotinylated-fibrinogen binding to immobilized αvβ3; set-up: placental αvβ3; from tissue; host or cells: placenta; conditions: for pIC50: Solid Phase Assay, biotinylated-fibrinogen 10 nM, 2 hours at 37° C; for Selectivity: αIIbβ3 vs αvβ3 solid phase IC50
# T1 sequence (P06756 31-889 limits assumed): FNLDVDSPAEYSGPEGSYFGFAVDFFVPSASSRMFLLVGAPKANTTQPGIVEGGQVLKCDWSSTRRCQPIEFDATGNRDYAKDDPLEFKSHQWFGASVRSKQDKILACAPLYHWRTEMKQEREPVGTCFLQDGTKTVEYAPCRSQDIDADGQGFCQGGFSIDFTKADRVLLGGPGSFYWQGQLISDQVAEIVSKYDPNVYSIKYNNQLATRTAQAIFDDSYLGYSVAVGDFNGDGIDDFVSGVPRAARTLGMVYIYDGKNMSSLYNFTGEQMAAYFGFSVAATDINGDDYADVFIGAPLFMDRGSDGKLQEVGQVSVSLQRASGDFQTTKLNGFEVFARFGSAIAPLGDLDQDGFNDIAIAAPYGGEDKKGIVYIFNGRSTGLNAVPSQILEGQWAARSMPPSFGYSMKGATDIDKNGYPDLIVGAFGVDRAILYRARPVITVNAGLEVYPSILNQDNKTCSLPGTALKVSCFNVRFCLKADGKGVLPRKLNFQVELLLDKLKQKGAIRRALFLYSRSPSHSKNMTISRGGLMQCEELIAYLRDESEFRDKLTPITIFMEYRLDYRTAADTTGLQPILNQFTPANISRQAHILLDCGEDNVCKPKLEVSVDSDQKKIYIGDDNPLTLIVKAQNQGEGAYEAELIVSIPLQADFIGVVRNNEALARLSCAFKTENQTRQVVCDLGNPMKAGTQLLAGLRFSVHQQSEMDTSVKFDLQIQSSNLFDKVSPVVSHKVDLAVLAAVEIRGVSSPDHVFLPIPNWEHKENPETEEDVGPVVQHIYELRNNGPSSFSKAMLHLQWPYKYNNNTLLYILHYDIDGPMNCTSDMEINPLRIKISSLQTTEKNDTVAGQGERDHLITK
# T1 sequence (P06756 891-1048 limits assumed): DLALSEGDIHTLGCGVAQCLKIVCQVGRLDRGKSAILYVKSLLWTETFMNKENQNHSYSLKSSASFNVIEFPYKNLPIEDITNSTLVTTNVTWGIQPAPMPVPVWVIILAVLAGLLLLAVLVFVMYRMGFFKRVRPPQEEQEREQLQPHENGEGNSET
# T1 sequence (P05106 27-788): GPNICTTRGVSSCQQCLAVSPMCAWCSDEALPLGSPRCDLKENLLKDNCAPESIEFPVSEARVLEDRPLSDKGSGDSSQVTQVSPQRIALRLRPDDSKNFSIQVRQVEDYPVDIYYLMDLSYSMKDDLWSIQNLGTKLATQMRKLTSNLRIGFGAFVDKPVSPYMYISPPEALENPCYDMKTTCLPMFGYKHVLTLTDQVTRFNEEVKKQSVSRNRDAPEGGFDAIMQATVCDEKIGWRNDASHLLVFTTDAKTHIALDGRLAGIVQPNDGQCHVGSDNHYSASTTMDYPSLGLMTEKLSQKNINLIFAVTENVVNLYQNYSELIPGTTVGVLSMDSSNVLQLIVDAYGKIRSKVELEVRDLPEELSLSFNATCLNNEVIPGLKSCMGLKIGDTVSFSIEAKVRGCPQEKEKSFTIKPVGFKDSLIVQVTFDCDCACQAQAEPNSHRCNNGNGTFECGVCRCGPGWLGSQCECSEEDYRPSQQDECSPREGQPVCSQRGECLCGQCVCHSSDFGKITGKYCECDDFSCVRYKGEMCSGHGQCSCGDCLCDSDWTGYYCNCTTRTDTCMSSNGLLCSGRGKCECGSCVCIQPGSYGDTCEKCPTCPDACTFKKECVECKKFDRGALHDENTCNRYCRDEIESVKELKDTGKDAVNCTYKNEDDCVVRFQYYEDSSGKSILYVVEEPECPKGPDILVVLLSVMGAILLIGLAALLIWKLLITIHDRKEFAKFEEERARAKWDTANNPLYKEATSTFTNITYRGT
# Method: (§1) Assay 1. Fibrinogen Binding to Immobilized αIIbβ3 and αvβ3 (Solid-Phase Assays) The wells of plastic microtiter plates were coated overnight at 4° C. with purified active αIIbβ3 (Calbiochem) or placental αvβ3 at 0.5 ug/mL (100 uL/well) in a buffer containing 150 mM NaCl, 20 mM Tris, pH 7.4, 1 mM MgCl2, 0.2 mM MnCl2, and including 1 mM CaCl2 for αIIbβ3 Blocking of nonspecific sites was achieved by incubating the wells with 35 mg/mL bovine serum albumin (BSA) for at least 2 hours at 37° C. Biotinylated-fibrinogen (10 nM) was added in 0.2 mL binding buffer (100 mM NaCl, 50 mM Tris, pH 7.4, 1 mM MgCl2, 0.2 mM MnCl2 and 1 mg/mL BSA including 1 mM CaCl2 for αIIbβ3) to the wells in triplicate in the absence or presence of increasing concentrations of compounds of interest (0.001-100 uM) and further incubated for 2 hours at 37° C. Nonbound fibrinogen was removed by five washes with binding buffer. Avidin conjugated to alkaline phosphatase (Sigma), diluted in binding buffer, was added and incubated for two hours at 37° C. The plates were washed five times with binding buffer, and after addition of the substrate PNPP (Pierce), the enzyme activity was measured by the absorbance at 405 nm. The concentration of inhibitor required to inhibit 50% of biotinylated-fibrinogen binding was defined as IC50 determined by a nonlinear, sigmoidal dose response variable slope from the GraphPad Prism software.
# αvβ5 = target: T2, αvβ5 (Homo sapiens, UniProt P06756+P18084); assay: Cell attachment assay, αvβ5; assay type: cell-based; conditions: 1 hour at 37° C
# T2 construct: Cells HT29, K562, or K562 transfected with αvβ3; endogenous in cells; host or cells: HT29
# T2 sequence (P06756 31-889 limits assumed): as the sequence (P06756 31-889 limits assumed) above
# T2 sequence (P06756 891-1048 limits assumed): as the sequence (P06756 891-1048 limits assumed) above
# T2 sequence (P18084 24-799): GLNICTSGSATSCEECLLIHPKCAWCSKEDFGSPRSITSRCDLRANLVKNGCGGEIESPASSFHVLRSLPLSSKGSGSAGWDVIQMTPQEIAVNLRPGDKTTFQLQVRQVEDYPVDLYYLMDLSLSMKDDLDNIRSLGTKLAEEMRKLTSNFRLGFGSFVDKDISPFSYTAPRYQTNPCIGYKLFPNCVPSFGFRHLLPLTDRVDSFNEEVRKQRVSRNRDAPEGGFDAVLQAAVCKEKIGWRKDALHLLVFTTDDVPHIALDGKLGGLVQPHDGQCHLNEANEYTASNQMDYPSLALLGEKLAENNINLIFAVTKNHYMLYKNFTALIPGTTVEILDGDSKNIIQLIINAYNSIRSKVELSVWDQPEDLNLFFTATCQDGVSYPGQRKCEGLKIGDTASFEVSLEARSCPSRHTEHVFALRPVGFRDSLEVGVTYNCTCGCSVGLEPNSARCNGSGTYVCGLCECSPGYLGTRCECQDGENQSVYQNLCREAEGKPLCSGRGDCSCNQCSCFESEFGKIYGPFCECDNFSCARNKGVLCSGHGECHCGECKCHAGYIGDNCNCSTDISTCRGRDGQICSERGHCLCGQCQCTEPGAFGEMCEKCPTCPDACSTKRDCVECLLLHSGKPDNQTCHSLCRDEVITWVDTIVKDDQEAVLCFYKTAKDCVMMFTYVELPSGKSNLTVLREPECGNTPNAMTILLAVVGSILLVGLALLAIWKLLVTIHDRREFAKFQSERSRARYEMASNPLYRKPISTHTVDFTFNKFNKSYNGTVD
# Method: (§2) The wells of 96-well plates (Immunolon) were coated, by incubation overnight at 4° C., with 5 ug/mL vitronectin, 2 ug/mL osteopontin, or fibronectin or 10 mg/mL BSA in PBS. The protein solution was flicked out and the wells were blocked with 10 mg/mL BSA (0.1 mL) for 1-2 hours at 37° C. Cells HT29, K562, or K562 transfected with αvβ3 (Blystone et al., 1994) were loaded with a fluorescent marker, 5-chloromethylfluorescein diacetate (Molecular Probes, Eugene, OR) for 1 hour at 37° C., then incubated in fresh medium without the fluorescent marker for 1 hour. Cells were lifted with trypsin-EDTA and washed two times with Hank's balanced salt solution minus cations (Sigma) supplemented with 1 mM MgCl2 Cells (75,000 cells/well) were added to coated plates in triplicate and allowed to attach at 37° C. for 1 hour in the presence or absence of specific antibodies (5 ug/mL) or 10-fold dilutions of compounds of interest starting at 10 uM. Nonadherent cells were removed by gentle washing twice with PBS. The adherent cells were solubilized with 1% triton x-100 and detected using a fluorescence plate reader (DYNEX Technologies). The number of attached cells was calculated based upon standard curves for each cell line used in the experiment. Non-specific cell attachment (attachment to wells coated with BSA) was always less than 5%.
# α5β1 = target: T3, α5β1 (Homo sapiens, UniProt P05556+P08648); assay: Cell attachment assay, α5β1; assay type: cell-based; conditions: 1 hour at 37° C
# T3 construct: Cells HT29, K562, or K562 transfected with αvβ3; endogenous in cells; host or cells: K562
# T3 sequence (P08648 42-894 limits assumed): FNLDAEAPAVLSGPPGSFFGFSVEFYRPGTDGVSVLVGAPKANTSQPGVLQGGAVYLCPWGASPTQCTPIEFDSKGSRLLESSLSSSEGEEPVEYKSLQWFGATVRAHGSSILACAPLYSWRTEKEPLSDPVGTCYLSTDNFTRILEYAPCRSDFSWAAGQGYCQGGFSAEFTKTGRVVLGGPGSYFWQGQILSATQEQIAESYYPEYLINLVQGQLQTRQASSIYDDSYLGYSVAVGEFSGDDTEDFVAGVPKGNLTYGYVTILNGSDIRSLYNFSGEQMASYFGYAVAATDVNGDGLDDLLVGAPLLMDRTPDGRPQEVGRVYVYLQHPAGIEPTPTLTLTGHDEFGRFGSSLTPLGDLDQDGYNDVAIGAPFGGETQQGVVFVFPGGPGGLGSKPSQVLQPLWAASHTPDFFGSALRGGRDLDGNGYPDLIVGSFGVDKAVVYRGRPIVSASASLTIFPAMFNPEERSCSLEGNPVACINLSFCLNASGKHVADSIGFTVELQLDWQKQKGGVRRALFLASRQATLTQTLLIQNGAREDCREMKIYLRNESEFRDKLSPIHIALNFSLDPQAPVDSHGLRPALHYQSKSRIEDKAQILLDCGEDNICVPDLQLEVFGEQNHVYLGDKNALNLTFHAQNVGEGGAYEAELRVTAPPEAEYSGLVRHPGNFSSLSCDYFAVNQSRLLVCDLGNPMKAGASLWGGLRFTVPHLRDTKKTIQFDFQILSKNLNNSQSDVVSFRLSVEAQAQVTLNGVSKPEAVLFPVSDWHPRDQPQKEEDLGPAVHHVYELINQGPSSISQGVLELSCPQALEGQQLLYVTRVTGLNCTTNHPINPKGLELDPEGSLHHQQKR
# T3 sequence (P08648 895-1049 limits assumed): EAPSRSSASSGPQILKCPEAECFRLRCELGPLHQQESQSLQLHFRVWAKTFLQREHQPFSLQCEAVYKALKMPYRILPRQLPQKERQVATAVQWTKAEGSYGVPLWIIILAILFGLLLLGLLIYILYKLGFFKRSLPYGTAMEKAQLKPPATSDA
# T3 sequence (P05556 21-798): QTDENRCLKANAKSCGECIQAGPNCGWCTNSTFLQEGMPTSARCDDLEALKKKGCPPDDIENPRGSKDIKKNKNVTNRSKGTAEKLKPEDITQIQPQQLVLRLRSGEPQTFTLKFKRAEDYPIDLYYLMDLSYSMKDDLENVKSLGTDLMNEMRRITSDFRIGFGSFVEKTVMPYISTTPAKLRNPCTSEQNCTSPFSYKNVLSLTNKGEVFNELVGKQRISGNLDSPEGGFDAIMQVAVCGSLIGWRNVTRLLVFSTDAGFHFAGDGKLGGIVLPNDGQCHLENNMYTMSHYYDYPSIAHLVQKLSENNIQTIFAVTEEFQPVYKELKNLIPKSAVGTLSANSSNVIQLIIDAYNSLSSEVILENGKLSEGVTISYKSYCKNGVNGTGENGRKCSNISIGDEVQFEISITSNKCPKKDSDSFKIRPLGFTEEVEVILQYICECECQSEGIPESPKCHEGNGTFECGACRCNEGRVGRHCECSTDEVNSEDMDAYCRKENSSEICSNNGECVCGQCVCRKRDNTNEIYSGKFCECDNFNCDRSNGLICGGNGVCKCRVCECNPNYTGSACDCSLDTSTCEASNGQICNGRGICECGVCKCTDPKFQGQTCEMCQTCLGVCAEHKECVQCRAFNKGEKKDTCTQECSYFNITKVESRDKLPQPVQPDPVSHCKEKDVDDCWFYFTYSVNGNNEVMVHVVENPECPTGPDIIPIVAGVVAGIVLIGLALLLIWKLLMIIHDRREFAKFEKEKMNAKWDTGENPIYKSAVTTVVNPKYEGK
# Method: as §2
# B16F10 = assay: Cytotoxicity (MTT), B16F10; assay type: cell-based; conditions: Mus musculus, B16-F10, 72 hours
# Method: [The source words this procedure for another cell line and reports this cell line under the same test.] (§3) Assay 3. Cytotoxicity (MTT)
# (§4) The wells of microtiter plates were seeded with 2000 cells/well T24, 2500 cells/well HT29 or 5000 cells/well HMVEC (Cell Systems) in 100 uL, followed by an overnight culture for cell adhesion. The next day, the media is supplemented with 100 uL of 10-fold dilution of compound of interest starting at 10 uM. Following culture for 72 hours, 3-(4, 5-dimethyl-2-thiazolyl)-2, 5-diphenyltetrazolium bromide (MTT; Sigma) at 2 mg/mL was added to each well (50 uL/well) and further incubated for 4 hours at 37° C. The medium was flicked out and 200 uL of a 1:1 solution of ethanol:acetone followed by 25 uL of glycine buffer (0.1 M glycine, 0.1M NaCl, pH 10.5) is added and the color measured by the absorbance at 570 nm.
# HT29 = assay: Cytotoxicity (MTT), HT29; assay type: cell-based; conditions: Homo sapiens, HT-29, 72 hours, 2500 cells/well
# Method: as §3, §4
# αvβ3 [2] = target: T1, αvβ3; assay: Cell attachment assay, αvβ3; assay type: cell-based; conditions: 1 hour at 37° C
# Method: as §2
# HMVEC = assay: Cytotoxicity (MTT), HMVEC; assay type: cell-based; conditions: 72 hours, 5000 cells/well
# Method: as §3, §4
# αIIbβ3 = target: T4, αIIbβ3 (Homo sapiens, UniProt P05106+P08514); assay: Solid-phase assay: biotinylated-fibrinogen binding to immobilized αIIbβ3; conditions: biotinylated-fibrinogen 10 nM, 2 hours at 37° C, 1 mM CaCl2, read-out: IC50 αIIbβ
# T4 construct: purchased Calbiochem
# Method: Assay 1. Fibrinogen Binding to Immobilized αIIbβ3 and αvβ3
# as §1, with “The” for “Assay 1. Fibrinogen Binding to Immobilized αIIbβ3 and αvβ3 (Solid-Phase Assays) The”
SMILES,pIC50 (αvβ3 [1]),pIC50 (αvβ5),Selectivity (αvβ3 [1]),pIC50 (α5β1),pIC50 (B16F10),pIC50 (HT29),pIC50 (αvβ3 [2]),pIC50 (HMVEC),pIC50 (αIIbβ3)
"Cc1cc(C)c(S(=O)(=O)NC(CNC(=O)c2ccc(-c3cccc(NC(=N)N)c3)s2)C(=O)Nc2nccs2)c(C)c1 (stereo not shown) [Compound X-5, 5-(3-Guanidino-phenyl)-thiophene-2-carboxylic acid [2-(thiazol-2-ylcarbamoyl)-2-(2,4,6-trimethyl-benzenesulfonylamino)-ethyl]-amide hydrochloride salt]",6.44,,,,,,,,
"N=C(N)NCc1cccc(-c2ccc(C(=O)NC[C@H](NS(=O)(=O)c3ccccc3)C(=O)O)s2)c1 [Compound E-2, 2-Benzenesulfonylamino-3-{[5-(3-guanidinomethyl-phenyl)-thiophene-2-carbonyl]-amino}-propionic acid trifluoroacetic acid salt]",8.57,7.14,0.2,6.19,5.89,< 5.00,9.74,6.70,9.26
"CCOC(=O)[C@H](CNC(=O)c1ccc(-c2cccc(NC(=N)N)c2)s1)NS(=O)(=O)c1c(C)cc(C)cc1C [AB-2, 5-(3-Guanidino-phenyl)-thiophene-2-carboxylic acid [2-carbamoyl-2-(2,4,6-trimethyl-benzenesulfonylamino)-ethyl]-carboxylic acid ethyl ester]",6.98,,,,,,,,
"Cc1cc(C)c(S(=O)(=O)N[C@@H](CNC(=O)c2ccc(-c3cccc(NC(=N)N)c3)s2)C(=O)O)c(C)c1 [Compound M-3, 3-{[5-(3-Guanidino-phenyl)-thiophene-2-carbonyl]-amino}-2-(2,4,6-trimethyl-benzenesulfonylamino)-propionic acid (trifluoroacetic acid salt)]",8.72,8.80,0.6,7.47,6.59,5.16,10.74,6.85,8.96
"N=C(N)Nc1cccc(-c2ccc(C(=O)NC[C@H](NS(=O)(=O)c3ccccc3)C(=O)O)s2)c1 [Compound K-3, 2-Benzenesulfonylamino-3-{[5-(3-guanidino-phenyl)-thiophene-2-carbonyl]-amino}-propionic acid (trifluoroacetic acid salt)]",8.82,8.19,1,7.10,6.49,5.29,8.55,7.35,8.85
"Cc1cc(C)c(S(=O)(=O)N[C@@H](CNC(=O)c2ccc(/C=C/CNC(=N)N)s2)C(=O)O)c(C)c1 [Compound U-2, (S)-3-{[5-(3-Guanidino-(E)-propenyl)-thiophene-2-carbonyl]-amino}-2-(2,4,6-trimethyl-benzenesulfonylamino)-propionic acid trifluoroacetic acid salts]",9.30,8.22,1,8.21,6.74,5.32,8.82,7.59,9.27
"Cc1cc(C)c(S(=O)(=O)N[C@@H](CNC(=O)c2ccc(-c3cccc(CNC(=N)N)c3)s2)C(=O)O)c(C)c1 [Compound F-2, 3-{[5-(3-Guanidinomethyl-phenyl)-thiophene-2-carbonyl]-amino}-2-(2,4,6-trimethyl-benzenesulfonylamino)-propionic acid trifluoroacetic acid salt]",8.09,7.96,0.03,7.15,6.72,5.34,8.54,7.51,9.60
"Cc1cc(C)c(S(=O)(=O)NC(CNC(=O)c2ccc(-c3cccc(NC(=N)N)c3)s2)C(N)=O)c(C)c1 (stereo not shown) [AC-1, 5-(3-Guanidino-phenyl)-thiophene-2-carboxylic acid [2-carbamoyl-2-(2,4,6-trimethyl-benzenesulfonylamino)-ethyl]-amide hydrochloride salt]",6.54,,,,,,,,
"Cc1cc(C)c(S(=O)(=O)NC(CNC(=O)c2ccc(-c3cccc(NC(=N)N)c3)s2)C(N)=O)c(C)c1 (stereo not shown) [AB-4, 5-(3-Guanidino-phenyl)-thiophene-2-carboxylic acid [2-carbamoyl-2-(2,4,6-trimethyl-benzenesulfonylamino)-ethyl]-amide hydrochloride salt]",7.44,,,,,,,,
